Experimental data from PubChem BioAssay (NCI).
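Grown in 96-well plates, cells were treated for 48 hours with each compound at five concentrations. Insufficient inhibition: endpoint recorded as highest concentration tested. At the GI50, growth is halved. TGI: concentration producing complete growth inhibition.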

How the values were obtained:
Assay in all cases: inhibition of tumour cell growth, NCI panel, 48 h
[1] = test system: 786-0 renal
[2] = test system: A498 renal
[3] = test system: A549 NSCLC
[4] = test system: ACHN renal
[5] = test system: BT-549 breast
[6] = test system: CAKI-1 renal
[7] = test system: CCRF-CEM leukemia
[8] = test system: COLO 205 colon
[9] = test system: DU-145 prostate
[10] = test system: EKVX NSCLC
[11] = test system: HCC-2998 colon
[12] = test system: HCT-116 colon
[13] = test system: HCT-15 colon
[14] = test system: HL-60(TB) leukemia
[15] = test system: HOP-62 NSCLC
[16] = test system: HOP-92 NSCLC
[17] = test system: HS 578T breast
[18] = test system: HT29 colon
[19] = test system: IGROV1 ovarian
[20] = test system: K-562 leukemia
[21] = test system: KM12 colon
[22] = test system: LOX IMVI melanoma
[23] = test system: M14 melanoma
[24] = test system: MALME-3M melanoma
[25] = test system: MCF7 breast
[26] = test system: MDA-MB-231 breast
[27] = test system: MDA-MB-435
[28] = test system: MDA-MB-468 breast
[29] = test system: MOLT-4 leukemia
[30] = test system: NCI-H226 lung
[31] = test system: NCI-H23 lung
[32] = test system: NCI-H460 lung
[33] = test system: NCI-H522 lung
[34] = test system: NCI/ADR-RES ovarian
[35] = test system: OVCAR-3 ovarian
[36] = test system: OVCAR-4 ovarian
[37] = test system: OVCAR-5 ovarian
[38] = test system: OVCAR-8 ovarian
[39] = test system: PC-3 prostate
[40] = test system: RPMI-8226 leukemia
[41] = test system: RXF 393 renal
[42] = test system: SF-268 CNS
[43] = test system: SF-295 CNS
[44] = test system: SF-539 CNS
[45] = test system: SK-MEL-2 melanoma
[46] = test system: SK-MEL-28 melanoma
[47] = test system: SK-MEL-5 melanoma
[48] = test system: SK-OV-3 ovarian
[49] = test system: SN12C renal
[50] = test system: SNB-19 CNS
[51] = test system: SNB-75 CNS
[52] = test system: SR leukemia
[53] = test system: SW-620 colon
[54] = test system: T-47D breast
[55] = test system: TK-10 renal
[56] = test system: U251 CNS
[57] = test system: UACC-257 melanoma
[58] = test system: UACC-62 melanoma
[59] = test system: UO-31 renal

## CCc1ccc(SC2c3cc(OC)ccc3Oc3nc(N)c(C#N)c(N)c32)cc1 (stereo not drawn)
[1]
  GI50: 3.11 µM
  TGI: 24.9 µM
[2]
  GI50: 3.32 µM
  TGI: 10.8 µM
[3]
  GI50: 3.99 µM
  TGI: 49.4 µM
[4]
  GI50: 5.6 µM
  TGI: 25.3 µM
[5]
  GI50: 0.742 µM
  TGI: 3.25 µM
[6]
  GI50: 1.89 µM
  TGI: 15 µM
[7]
  GI50: 0.225 µM
  TGI: 4.34 µM
[8]
  GI50: 2.35 µM
  TGI: 6.19 µM
[9]
  GI50: 11.7 µM
  TGI: 24.6 µM
[10]
  GI50: 3.74 µM
  TGI: 17.3 µM
[11]
  GI50: 4.9 µM
  TGI: 17.1 µM
[12]
  GI50: 3.05 µM
  TGI: 13.9 µM
[13]
  GI50: 2.96 µM
  TGI: 19.3 µM
[14]
  GI50: 2.09 µM
  TGI: 6.11 µM
[15]
  GI50: 3.77 µM
  TGI: > 100 µM
[16]
  GI50: 3.66 µM
  TGI: 35.4 µM
[17]
  GI50: 2.35 µM
  TGI: 9.18 µM
[18]
  GI50: 6.15 µM
  TGI: > 100 µM
[19]
  GI50: 0.349 µM
  TGI: 1.51 µM
[20]
  GI50: 3.51 µM
  TGI: 24.4 µM
[21]
  GI50: 3.43 µM
  TGI: 16.1 µM
[22]
  GI50: 0.23 µM
  TGI: 0.658 µM
[23]
  GI50: 2.67 µM
  TGI: 12.4 µM
[24]
  GI50: 10.6 µM
  TGI: 22.7 µM
[25]
  GI50: 3.04 µM
  TGI: 13.6 µM
[26]
  GI50: 3.34 µM
  TGI: 17 µM
[27]
  GI50: 2.05 µM
  TGI: 11.6 µM
[28]
  GI50: 2.1 µM
  TGI: 6.56 µM
[29]
  GI50: 1.28 µM
  TGI: 9.69 µM
[30]
  GI50: 2.26 µM
  TGI: 23.3 µM
[31]
  GI50: 2.9 µM
  TGI: 14 µM
[32]
  GI50: 2.84 µM
  TGI: 15.3 µM
[33]
  GI50: 1.69 µM
  TGI: 3.49 µM
[34]
  GI50: 3.24 µM
  TGI: 26.4 µM
[35]
  GI50: 2.9 µM
  TGI: 12.6 µM
[36]
  GI50: 4.23 µM
  TGI: 41.6 µM
[37]
  GI50: 3.41 µM
  TGI: 14.4 µM
[38]
  GI50: 5.85 µM
  TGI: 37.4 µM
[39]
  GI50: 1.52 µM
  TGI: 18.6 µM
[40]
  GI50: 3.02 µM
  TGI: 14.6 µM
[41]
  GI50: 1.76 µM
  TGI: 5.09 µM
[42]
  GI50: 1.99 µM
  TGI: 20.5 µM
[43]
  GI50: 3.28 µM
  TGI: 15.7 µM
[44]
  GI50: 1.59 µM
  TGI: 3.27 µM
[45]
  GI50: 3.42 µM
  TGI: 13 µM
[46]
  GI50: 2.99 µM
  TGI: 12.5 µM
[47]
  GI50: 3.23 µM
  TGI: 13.7 µM
[48]
  GI50: 6.62 µM
  TGI: 82.4 µM
[49]
  GI50: 1.76 µM
  TGI: 15.8 µM
[50]
  GI50: 3.17 µM
  TGI: 16.6 µM
[51]
  GI50: 0.566 µM
  TGI: 4.02 µM
[52]
  GI50: 2.61 µM
  TGI: 22.8 µM
[53]
  GI50: 3.15 µM
  TGI: 13.1 µM
[54]
  GI50: 3.36 µM
  TGI: 32.9 µM
[55]
  GI50: 9.67 µM
  TGI: 32.2 µM
[56]
  GI50: 1.82 µM
  TGI: 15.3 µM
[57]
  GI50: 9.06 µM
  TGI: 29.6 µM
[58]
  GI50: 2.73 µM
  TGI: 11.5 µM
[59]
  GI50: 0.575 µM
  TGI: 4.17 µM
